pIC50: −log10 of the molar value.
What was measured:
HCT-15 [1] = assay: Cytotoxicity against human HCT15 cells at 10 uM after 48 hrs by SRB assay; assay type: functional; settings: HCT-15, 48 h, read-out: GI
SF-295 [2] = assay: Cytotoxicity against human SF295 cells at 10 uM after 48 hrs by SRB assay; assay type: functional; settings: SF-295, 48 h, read-out: GI
A549 [3] = assay: Cytotoxicity against human A549 cells at 10 uM after 48 hrs by SRB assay; assay type: functional; settings: A549, 48 h, read-out: GI
MCF7 [4] = assay: Cytotoxicity against human MCF7 cells at 10 uM after 48 hrs by SRB assay; assay type: functional; settings: MCF7, 48 h, read-out: GI
HEp-2 [5] = assay: Cytotoxicity against human Hep2 cells at 10 uM after 48 hrs by SRB assay; assay type: functional; settings: HEp-2, 48 h, read-out: GI
PC-3 [6] = assay: Cytotoxicity against human PC3 cells at 10 uM after 48 hrs by SRB assay; assay type: functional; settings: PC-3, 48 h, read-out: GI
DU-145 [7] = assay: Cytotoxicity against human DU145 cells at 10 uM after 48 hrs by SRB assay; assay type: functional; settings: DU-145, 48 h, read-out: GI
HL-60 [8] = assay: Cytotoxicity against human HL60 cells at 10 uM after 48 hrs by SRB assay; assay type: functional; settings: HL-60, 48 h, read-out: GI
THP-1 [9] = assay: Cytotoxicity against human THP1 cells at 10 uM after 48 hrs by SRB assay; assay type: functional; settings: THP-1, 48 h, read-out: GI
HCT-15 [10] = assay: Cytotoxicity against human HCT15 cells at 30 uM after 48 hrs by SRB assay; assay type: functional; settings: HCT-15, 48 h, read-out: GI
SF-295 [11] = assay: Cytotoxicity against human SF295 cells at 30 uM after 48 hrs by SRB assay; assay type: functional; settings: SF-295, 48 h, read-out: GI
A549 [12] = assay: Cytotoxicity against human A549 cells at 30 uM after 48 hrs by SRB assay; assay type: functional; settings: A549, 48 h, read-out: GI
MCF7 [13] = assay: Cytotoxicity against human MCF7 cells at 30 uM after 48 hrs by SRB assay; assay type: functional; settings: MCF7, 48 h, read-out: GI
HEp-2 [14] = assay: Cytotoxicity against human Hep2 cells at 30 uM after 48 hrs by SRB assay; assay type: functional; settings: HEp-2, 48 h, read-out: GI
PC-3 [15] = assay: Cytotoxicity against human PC3 cells at 30 uM after 48 hrs by SRB assay; assay type: functional; settings: PC-3, 48 h, read-out: GI
DU-145 [16] = assay: Cytotoxicity against human DU145 cells at 30 uM after 48 hrs by SRB assay; assay type: functional; settings: DU-145, 48 h, read-out: GI
HL-60 [17] = assay: Cytotoxicity against human HL60 cells at 30 uM after 48 hrs by SRB assay; assay type: functional; settings: HL-60, 48 h, read-out: GI
THP-1 [18] = assay: Cytotoxicity against human THP1 cells at 30 uM after 48 hrs by SRB assay; assay type: functional; settings: THP-1, 48 h, read-out: GI
HCT-15 [19] = assay: Cytotoxicity against human HCT15 cells at 50 uM after 48 hrs by SRB assay; assay type: functional; settings: HCT-15, 48 h, read-out: GI
SF-295 [20] = assay: Cytotoxicity against human SF295 cells at 50 uM after 48 hrs by SRB assay; assay type: functional; settings: SF-295, 48 h, read-out: GI
A549 [21] = assay: Cytotoxicity against human A549 cells at 50 uM after 48 hrs by SRB assay; assay type: functional; settings: A549, 48 h, read-out: GI
MCF7 [22] = assay: Cytotoxicity against human MCF7 cells at 50 uM after 48 hrs by SRB assay; assay type: functional; settings: MCF7, 48 h, read-out: GI
HEp-2 [23] = assay: Cytotoxicity against human Hep2 cells at 50 uM after 48 hrs by SRB assay; assay type: functional; settings: HEp-2, 48 h, read-out: GI
PC-3 [24] = assay: Cytotoxicity against human PC3 cells at 50 uM after 48 hrs by SRB assay; assay type: functional; settings: PC-3, 48 h, read-out: GI
HL-60 [25] = assay: Cytotoxicity against human HL60 cells at 50 uM after 48 hrs by SRB assay; assay type: functional; settings: HL-60, 48 h, read-out: GI
DU-145 [26] = assay: Cytotoxicity against human DU145 cells at 50 uM after 48 hrs by SRB assay; assay type: functional; settings: DU-145, 48 h, read-out: GI
THP-1 [27] = assay: Cytotoxicity against human THP1 cells at 50 uM after 48 hrs by SRB assay; assay type: functional; settings: THP-1, 48 h, read-out: GI
HCT-15 [28] = assay: Cytotoxicity against human HCT15 cells after 48 hrs by SRB assay; assay type: functional, cell-based; settings: HCT-15, 48 h
A549 [29] = assay: Cytotoxicity against human A549 cells after 48 hrs by SRB assay; assay type: functional, cell-based; settings: A549, 48 h
SF-295 [30] = assay: Cytotoxicity against human SF295 cells after 48 hrs by SRB assay; assay type: functional, cell-based; settings: SF-295, 48 h
MCF7 [31] = assay: Cytotoxicity against human MCF7 cells after 48 hrs by SRB assay; assay type: functional, cell-based; settings: MCF7, 48 h
HEp-2 [32] = assay: Cytotoxicity against human Hep2 cells after 48 hrs by SRB assay; assay type: functional, cell-based; settings: HEp-2, 48 h
PC-3 [33] = assay: Cytotoxicity against human PC3 cells after 48 hrs by SRB assay; assay type: functional, cell-based; settings: PC-3, 48 h
DU-145 [34] = assay: Cytotoxicity against human DU145 cells after 48 hrs by SRB assay; assay type: functional, cell-based; settings: DU-145, 48 h
HL-60 [35] = assay: Cytotoxicity against human HL60 cells after 48 hrs by SRB assay; assay type: functional, cell-based; settings: HL-60, 48 h
THP-1 [36] = assay: Cytotoxicity against human THP1 cells after 48 hrs by SRB assay; assay type: functional, cell-based; settings: THP-1, 48 h

Structure (SMILES) | inhibition of growth at 10 µM (HCT-15 [1]) | inhibition of growth at 10 µM (SF-295 [2]) | inhibition of growth at 10 µM (A549 [3]) | inhibition of growth at 10 µM (MCF7 [4]) | inhibition of growth at 10 µM (HEp-2 [5]) | inhibition of growth at 10 µM (PC-3 [6]) | inhibition of growth at 10 µM (DU-145 [7]) | inhibition of growth at 10 µM (HL-60 [8]) | inhibition of growth at 10 µM (THP-1 [9]) | inhibition of growth at 30 µM (HCT-15 [10]) | inhibition of growth at 30 µM (SF-295 [11]) | inhibition of growth at 30 µM (A549 [12]) | inhibition of growth at 30 µM (MCF7 [13]) | inhibition of growth at 30 µM (HEp-2 [14]) | inhibition of growth at 30 µM (PC-3 [15]) | inhibition of growth at 30 µM (DU-145 [16]) | inhibition of growth at 30 µM (HL-60 [17]) | inhibition of growth at 30 µM (THP-1 [18]) | inhibition of growth at 50 µM (HCT-15 [19]) | inhibition of growth at 50 µM (SF-295 [20]) | other results
C=C(C)[C@@H]1CC[C@]2(C(=O)O)CC[C@]3(C)[C@H](CC[C@@H]4[C@@]5(C)CC[C@H](OCc6cn(-c7ccc(CC#N)cc7)nn6)C(C)(C)[C@@H]5CC[C@]43C)[C@@H]12 | 17% | 44% | 32% | 42% | 45% | 42% | 30% | 46% | 43% | 27% | 81% | 57% | 98% | 69% | 48% | 61% | 96% | 95% | 56% | 83% | inhibition of growth at 50 µM (A549 [21]): 60%; inhibition of growth at 50 µM (MCF7 [22]): 99%; inhibition of growth at 50 µM (HEp-2 [23]): 71%; inhibition of growth at 50 µM (PC-3 [24]): 64%; inhibition of growth at 50 µM (HL-60 [25]): 98%; inhibition of growth at 50 µM (DU-145 [26]): 68%; inhibition of growth at 50 µM (THP-1 [27]): 96%; pIC50 (HCT-15 [28]): 4.34; pIC50 (A549 [29]): 4.60; pIC50 (SF-295 [30]): 4.89; pIC50 (MCF7 [31]): 4.92; pIC50 (HEp-2 [32]): 4.89; pIC50 (PC-3 [33]): 4.49; pIC50 (DU-145 [34]): 4.64; pIC50 (HL-60 [35]): 4.96; pIC50 (THP-1 [36]): 4.92
C=C(C)[C@@H]1CC[C@]2(C(=O)O)CC[C@]3(C)[C@H](CC[C@@H]4[C@@]5(C)CC[C@H](OCc6cn(C7O[C@H](COC(C)=O)[C@H](OC(C)=O)[C@H](OC(C)=O)[C@H]7OC(C)=O)nn6)C(C)(C)[C@@H]5CC[C@]43C)[C@@H]12 (stereo partly drawn) | 39% | 8% | 6% | 35% | 25% | 5% | 8% | 62% | 50% | 51% | 20% | 10% | 44% | 41% | 32% | 20% | 66% | 61% | 63% | 39% | inhibition of growth at 50 µM (A549 [21]): 37%; inhibition of growth at 50 µM (MCF7 [22]): 52%; inhibition of growth at 50 µM (HEp-2 [23]): 58%; inhibition of growth at 50 µM (PC-3 [24]): 40%; inhibition of growth at 50 µM (HL-60 [25]): 74%; inhibition of growth at 50 µM (DU-145 [26]): 36%; inhibition of growth at 50 µM (THP-1 [27]): 72%; pIC50 (HCT-15 [28]): 4.55; pIC50 (A549 [29]): < 4.30; pIC50 (SF-295 [30]): < 4.30; pIC50 (MCF7 [31]): 4.35; pIC50 (HEp-2 [32]): 4.40; pIC50 (PC-3 [33]): < 4.30; pIC50 (DU-145 [34]): < 4.30; pIC50 (HL-60 [35]): 5.26; pIC50 (THP-1 [36]): 4.30
C=C(C)[C@@H]1CC[C@]2(C(=O)O)CC[C@]3(C)[C@H](CC[C@@H]4[C@@]5(C)CC[C@H](OCc6cn(-c7cc(I)ccc7C)nn6)C(C)(C)[C@@H]5CC[C@]43C)[C@@H]12 | 9% | 8% | 43% | 30% | 7% | 5% | 24% | 40% | 38% | 25% | 20% | 53% | 54% | 14% | 22% | 41% | 60% | 56% | 34% | 35% | inhibition of growth at 50 µM (A549 [21]): 67%; inhibition of growth at 50 µM (MCF7 [22]): 74%; inhibition of growth at 50 µM (HEp-2 [23]): 25%; inhibition of growth at 50 µM (PC-3 [24]): 4%; inhibition of growth at 50 µM (HL-60 [25]): 97%; inhibition of growth at 50 µM (DU-145 [26]): 65%; inhibition of growth at 50 µM (THP-1 [27]): 96%; pIC50 (HCT-15 [28]): < 4.30; pIC50 (A549 [29]): 4.64; pIC50 (SF-295 [30]): < 4.30; pIC50 (MCF7 [31]): 4.57; pIC50 (HEp-2 [32]): < 4.30; pIC50 (PC-3 [33]): < 4.30; pIC50 (DU-145 [34]): 4.41; pIC50 (HL-60 [35]): 4.74; pIC50 (THP-1 [36]): 4.66
